Results as given in patent US12378571B2, “Use of glyphosate for disease suppression and yield enhancement in soybean” (Monsanto Technology LLC, priority 2009, dated 2025).

Columns and labels:
[1] = test system: Brown Stem Rot (Phialaphora gregata); assay: Field trials, Brown Stem Rot, glyphosate (Example 4, Table 1); format: in vivo, soybean
Protocol: (§1) Greenhouse studies were performed to determine the effect of glyphosate timing and rate of application in preventing or suppressing the development of BSR in soybean plants. […] Field trials were also performed. Asgrow cv. 2107 soybean plants were planted and maintained weed free with pre-emergence herbicides at recommended rates, followed by hand weeding as necessary.

[2] = test system: Brown Stem Rot (Phialaphora gregata); assay: Greenhouse studies, Brown Stem Rot, glyphosate timing and rate; format: in vivo, soybean; details: application 4 days before infection, about 0.84-2.5 kg ae/ha
Protocol: as §1

[3] = test system: Diaporthe phaseolorum; assay: Greenhouse studies, Stem Canker of soybean, glyphosate after inoculation; format: in vivo; details: 0.84-2.52 kg ae/ha following inoculation
Protocol: Stem Canker of soybean (STC) is caused by Diaporthe phaseolorum. Greenhouse studies were performed to determine the efficacy of timing of glyphosate application (e.g. 0.84-2.52 kg ae/ha) following inoculation with the pathogen.

[4] = test system: Phakopsora pachyrhizi EPSPS expressed in Escherichia coli strain lacking native EPSPS; assay: Zone of growth inhibition, filter paper disk on plate seeded with E. coli expressing fungal EPSPS; format: cell-based
Protocol: Glyphosate Mode of Action Against Plant Pathogenic Fungi A gene encoding EPSPS was cloned from a representative phytopathogenic fungus, in this case, from Phakopsora pachyrhizi, the causal agent of Asian Soybean Rust (“ASR”), and expressed in an Escherichia coli strain lacking the native bacterial E. coli EPSPS. Thus, EPSPS activity in the recombinant bacterial strain was due to the presence of the fungal EPSPS. Glyphosate was added to a filter paper disk and placed on a culture plate seeded with the recombinant E. coli cells, allowing for detection of a zone of growth inhibition of bacterial cells.

[5] = Mobilization of glyphosate in planta after foliar application; format: in vivo
From the text: Mobilization of glyphosate in planta was studied to determine the potential to impact on activity against plant diseases. About 1 day after foliar application of glyphosate about 70% of the applied glyphosate may be found on the leaf surface, where it may directly contact fungal spores or infective structures, inhibiting their growth, and killing them. About 21% of the glyphosate was found localized within the foliage where it can act to inhibit infection locally. About 9% of the applied glyphosate was transported out of the treated leaf and detected systemically (e.g. in stems and roots) at the time of testing (e.g. Feng et al. 2005). The transported fraction of applied glyphosate increases to about 40% over time, further increasing systemic fungicidal activity.

[6] = test system: Brown Stem Rot of soybean; assay: Field studies, Brown Stem Rot: Roundup WeatherMAX, picoxystrobin, tank mix (Rup 1X = 0.84 kg ae/ha; picoxystrobin 0.125 kg ai/ha); format: in vivo; details: for BSR Foliar Symptoms (0-11 HB scale): picoxystrobin 1X at R2; for Calculated Values (% of control) Foliar Symptoms: treatment 9 (picoxystrobin 1X at R2)
[7] = about 1 day after foliar application

SMILES	suppression of BSR, as measured by foliar symptom severity ([1]; glyphosate applied at V3- R2 growth stages)	yield relative to untreated controls ([1]; treated soybean test plots)	foliar incidence of BSR [2]	prophylaxis of Soybean Stem Canker [3]	zone of inhibition ([4]; 5 mg of glyphosate on filter paper disk)	zone of growth inhibition ([4]; 20 mg of glyphosate on filter paper disk)	applied glyphosate found on the leaf surface [5, 7]	glyphosate localized within the foliage [5, 7]	applied glyphosate transported out of the treated leaf and detected systemically (stems and roots) ([5]; at the time of testing, about 1 day after foliar application)	transported fraction of applied glyphosate ([5]; over time)	BSR Foliar Symptoms (0-11 HB scale) ([6]; 7-Sep)	Calculated Values (% of control) Foliar Symptoms ([6]; 7-Sep)	BSR Foliar Symptoms (0-11 HB scale) ([6]; 14-Sep)	Calculated Values (% of control) Foliar Symptoms ([6]; 14-Sep)	BSR Foliar Symptoms (0-11 HB scale) ([6]; 31-Aug)	Calculated Values (% of control) Foliar Symptoms ([6]; 31-Aug)
O=C(O)CNCP(=O)(O)O [glyphosate, N-phosphonomethylglycine]	suppression of BSR (reduced stem rot severity)	Increased yield	reduced the level of foliar incidence of the disease	Prophylactic results, even 7 or more days post-inoculation, were seen	about 24 mm	about 38 mm	about 70%	About 21%	About 9%	about 40%						
CO/C=C(/C(=O)OC)c1ccccc1COc1cccc(C(F)(F)F)n1 [picoxystrobin]											3.6 0-11 HB scale	72.0 % of control	6.8 0-11 HB scale	113.3 % of control	3.0 0-11 HB scale	93.8 % of control
